These results are taken from publication PMC10372819 (Acta Pharmaceutica Sinica. B, 2023).

A value given as a limit tells only on which side of the number the result lay.

Series [1] deals with WT HIV-1. Conditions: Selectivity index CC50/EC50 (WT).
The target in series [2] is WT HIV-1 RT (Human immunodeficiency virus type 1 group M subtype B, UniProt P03366). As to the kind of experiment: biochemical.
Series [3] has as its system WT HIV-1. The experiment in a line: microbe, parasite or virus in culture. Conditions: Human immunodeficiency virus 1, MT4, read-out: WT EC50.
Series [4] relates to HIV-1 mutant L100I. As to the kind of experiment: microbe, parasite or virus in culture. Conditions: Human immunodeficiency virus 1, MT4, read-out: EC50 L100I.
The test system of series [5] is HIV-1 mutant K103N. As to the kind of experiment: microbe, parasite or virus in culture. Particulars: Human immunodeficiency virus 1, MT4, read-out: EC50 K103N.
Series [6] relates to HIV-1 mutant Y188L. As to the kind of experiment: microbe, parasite or virus in culture. Conditions: Human immunodeficiency virus 1, MT4, read-out: EC50 Y188L.
Series [7] deals with HIV-1 mutant E138K. As to the kind of experiment: microbe, parasite or virus in culture. Particulars: Human immunodeficiency virus 1, MT4, read-out: EC50 E138K.
Series [8] can be described thus: Cytotoxicity in uninfected. Conditions: human, mock-infected (uninfected) MT-4 cells, CC50, uninfected MT-4 cells, MTT.

Regarding `Cc1cc(-c2ccc(C#N)cc2)cc(C)c1Oc1nc(Nc2ccc(C#N)cc2)ncc1CO` [9a, 4′-((2-((4-Cyanophenyl)amino)-5-(hydroxymethyl)pyrimidin-4-yl)oxy)-3′,5′-dimethyl-[1,1′-biphenyl]-4-carbonitrile], the SI in series [1] was 6343. For the same compound, the half-maximal inhibitory concentration (IC50) in series [2] is 35 ± 8 nM. Moreover, the half-maximal effective concentration (EC50) in series [3] was found to be 2.5 ± 0.6 nM; in series [4], 6.3 ± 0.3 nM; in series [5], 3.2 ± 0.7 nM; in series [6], 33 ± 4 nM; in series [7], 6.5 ± 0.5 nM. Moreover, in series [8], the CC50 at 5 days was 15600 ± 4600 nM.

As for `Cc1cc(-c2ccc(C#N)cc2)ccc1Oc1nc(Nc2ccc(C#N)cc2)ncc1CO` [9b, 4′-((2-((4-Cyanophenyl)amino)-5-(hydroxymethyl)pyrimidin-4-yl)oxy)-3′-methyl-[1,1′-biphenyl]-4-carbonitrile], in series [1], the SI is reported as >38,095. The midpoint of inhibition in series [2], the IC50, lay at 27 ± 2 nM. For the same compound, the EC50 in series [3] was determined as 1.2 ± 0.1 nM; in series [4], 18.1 ± 3.4 nM; in series [5], 2.9 ± 0.1 nM; in series [6], 144 ± 25.9 nM; in series [7], 3.6 ± 0.7 nM. In addition, the cytotoxic concentration (CC50) at 5 days in series [8] was over 46200 nM.

Turning to `COc1cc(-c2ccc(C#N)cc2)ccc1Oc1nc(Nc2ccc(C#N)cc2)ncc1CO` [9c, 4′-((2-((4-Cyanophenyl)amino)-5-(hydroxymethyl)pyrimidin-4-yl)oxy)-3′-methoxy-[1,1′-biphenyl]-4-carbonitrile], in series [1], the SI is 149,540. The same compound had an IC50 in series [2] of 21 ± 8 nM. Besides, the EC50 in series [3] is 1.7 ± 0.1 nM; in series [4], 20.5 ± 1.3 nM; in series [5], 6.5 ± 0.2 nM; in series [6], 137 ± 8.1 nM; in series [7], 19.4 ± 4.8 nM. Further, the CC50 at 5 days in series [8] was 258000 ± 1200 nM.

As to `N#Cc1ccc(Nc2ncc(CO)c(Oc3ccc(-c4ccc(C#N)cc4)cc3F)n2)cc1` [9d, 4′-((2-((4-Cyanophenyl)amino)-5-(hydroxymethyl)pyrimidin-4-yl)oxy)-3′-fluoro-[1,1′-biphenyl]-4-carbonitrile], in series [1], the SI was >11,594. The IC50 in series [2] was determined as 33 ± 2 nM. Moreover, the EC50 in series [3] turned out to be 3.9 ± 0.4 nM; in series [4], 117 ± 17.7 nM; in series [5], 14.4 ± 1.5 nM; in series [6] it was 41800 nM; in series [7] it was 34.9 ± 3.2 nM. In series [8], this compound yielded a half-maximal cytotoxic concentration (CC50) at 5 days of over 45800 nM.

`N#Cc1ccc(Nc2ncc(CO)c(Oc3ccc(-c4ccc(C#N)cc4)cc3Cl)n2)cc1` [9e, 3′-Chloro-4′-((2-((4-cyanophenyl)amino)-5-(hydroxymethyl)pyrimidin-4-yl)oxy)-[1,1′-biphenyl]-4-carbonitrile]: in series [1], the SI is >17,021. In addition, in series [2], the midpoint of inhibition, the IC50, lay at 29 ± 3 nM. The EC50 worked out at 2.6 ± 0.5 nM in series [3]; 18.5 ± 3.6 nM in series [4]; 3.8 ± 0.2 nM in series [5]; 564 ± 97 nM in series [6]; 11 ± 2.1 nM in series [7]. In series [8], this compound came in with a CC50 at 5 days of over 44100 nM.

In turn, `N#Cc1ccc(Nc2ncc(CO)c(Oc3ccc(-c4ccc(C#N)cc4)cc3C(F)(F)F)n2)cc1` [9f, 4′-((2-((4-Cyanophenyl)amino)-5-(hydroxymethyl)pyrimidin-4-yl)oxy)-3′-(trifluoromethyl)-[1,1′-biphenyl]-4-carbonitrile] had an SI in series [1] of 7891. The IC50 in series [2] turned out to be 21 ± 6 nM. The EC50 in series [3] stood at 1.8 ± 0.1 nM; in series [4] it was 11.1 ± 0.5 nM; in series [5], 3.2 ± 0.6 nM; in series [6], 85.3 ± 8.4 nM; in series [7] it was 7.9 ± 0.2 nM. For the same compound, the CC50 at 5 days in series [8] is 14600 ± 3100 nM.

Regarding `Cc1cc(-c2ccncc2)cc(C)c1Oc1nc(Nc2ccc(C#N)cc2)ncc1CO` [9h, 4-((4-(2,6-Dimethyl-4-(pyridin-4-yl)phenoxy)-5-(hydroxymethyl)pyrimidin-2-yl)amino)benzonitrile], the SI in series [1] is listed as 30,868. The 50% effective concentration (EC50) came to 7.1 ± 3 nM in series [3]; 323 ± 44.5 nM in series [4]; 20.1 ± 3 nM in series [5]; 1580 ± 103 nM in series [6]; 38.9 ± 4.1 nM in series [7]. The compound further registered a half-maximal cytotoxic concentration (CC50) at 5 days in series [8] of 221000 ± 12500 nM.

Regarding `COc1cc(-c2ccncc2)ccc1Oc1nc(Nc2ccc(C#N)cc2)ncc1CO` [9i, 4-((5-(Hydroxymethyl)-4-(2-methoxy-4-(pyridin-4-yl)phenoxy)pyrimidin-2-yl)amino)benzonitrile], the SI in series [1] turned out to be 1679. For the same compound, the EC50 in series [3] was 18.2 ± 6.8 nM; in series [4], 560 ± 137 nM; in series [5] it was 95.6 ± 17.6 nM; in series [6], 1750 ± 123 nM; in series [7] it was 217 ± 18.4 nM. Also, the half-maximal cytotoxic concentration (CC50) at 5 days in series [8] turned out to be 30500 ± 3400 nM.

On to `N#Cc1ccc(Nc2ncc(CO)c(Oc3ccc(-c4ccncc4)cc3F)n2)cc1` [9j, 4-((4-(2-Fluoro-4-(pyridin-4-yl)phenoxy)-5-(hydroxymethyl)pyrimidin-2-yl)amino)benzonitrile], for which the SI in series [1] is >10,256. Besides, the EC50 in series [3] was 4.7 ± 0.7 nM; in series [4] it was 327 ± 44.9 nM; in series [5] it was 35.1 ± 8.1 nM; in series [6], over 48400 nM; in series [7] it was 42.4 ± 6.7 nM. In addition, the CC50 at 5 days in series [8] was over 48400 nM.

On to `N#Cc1ccc(Nc2ncc(CO)c(Oc3ccc(-c4ccncc4)cc3Cl)n2)cc1` [9k, 4-((4-(2-Chloro-4-(pyridin-4-yl)phenoxy)-5-(hydroxymethyl)pyrimidin-2-yl)amino)benzonitrile], for which the SI in series [1] is 53,539. Moreover, the EC50 was found to be 4.9 ± 0.9 nM in series [3]; 327 ± 54.8 nM in series [4]; 35.4 ± 12.3 nM in series [5]; 43000 nM in series [6]; 45.9 ± 5.9 nM in series [7]. Further, in series [8], the midpoint of cytotoxicity, the CC50 at 5 days, lay at 264000 ± 10200 nM.

`N#Cc1ccc(Nc2ncc(CO)c(Oc3c(F)cc(-c4ccncc4)cc3F)n2)cc1` [9l, 4-((4-(2,6-Difluoro-4-(pyridin-4-yl)phenoxy)-5-(hydroxymethyl)pyrimidin-2-yl)amino)benzonitrile]: the SI in series [1] is listed as 138,219. The EC50 in series [3] is 0.9 nM; in series [4] it was 22.2 ± 6.2 nM; in series [5], 3 ± 0.3 nM; in series [6], 720 ± 272 nM; in series [7] it was 13.6 ± 1.2 nM. Besides, the CC50 at 5 days in series [8] came out at 128000 ± 5500 nM.

On to `N#Cc1ccc(Nc2ncc(CO)c(Oc3ccc(-c4cccnc4)cc3F)n2)cc1` [9m, 4-((4-(2-Fluoro-4-(pyridin-3-yl)phenoxy)-5-(hydroxymethyl)pyrimidin-2-yl)amino)benzonitrile], for which, in series [1], the SI came to 583. In addition, the EC50 is 306 ± 43.6 nM in series [3]; 13700 ± 1140 nM in series [4]; 1690 ± 165 nM in series [5]; over 178000 nM in series [6]; 2490 ± 388 nM in series [7]. This compound also displayed a CC50 at 5 days in series [8] of 178000 ± 32900 nM.

Turning to `O=C1Nc2ccc(Cl)cc2[C@@](C#CC2CC2)(C(F)(F)F)O1` [EFV, efavirenz, reference compound], the EC50 in series [3] came out at 7 nM; in series [4], 440 ± 70 nM; in series [5], 102 ± 50 nM; in series [6], 290 ± 40 nM; in series [7], 6 nM. The cytotoxic concentration (CC50) at 5 days in series [8] was over 6300 nM.

Take `Cc1cc(C#N)cc(C)c1Oc1nc(Nc2ccc(C#N)cc2)nc(N)c1Br` [ETR, etravirine, reference compound]: the concentration for a half-maximal effect (EC50) in series [3] was determined as 6 nM; in series [4], 7 nM; in series [5], 3 nM; in series [6], 20 ± 10 nM; in series [7] it was 7 ± 10 nM. This compound also registered a cytotoxic concentration (CC50) at 5 days in series [8] of over 4600 nM.

In the case of `Cc1ccnc2c1NC(=O)c1cccnc1N2C1CC1` [NVP, nevirapine, reference compound], the concentration giving a half-maximal response (EC50) was 2100 ± 750 nM in series [4], over 10100 nM in series [5], over 15900 nM in series [6] and 2100 ± 30 nM in series [7]. The compound also had a half-maximal cytotoxic concentration (CC50) at 5 days in series [8] of over 15000 nM.
